Measured values from PubChem BioAssay (NCI).
“And” between values parts separate entries of the source, which are not always exact repeats. Identical values can stand only once.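 Cells were grown in 96-well plates and exposed to each compound for 48 hours at five concentrations; endpoints were interpolated linearly between bracketing concentrations, or set to the highest concentration if not reached. GI50 marks 50% less growth. TGI marks complete inhibition of growth.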

Key:
Assay in all cases: NCI anticancer screen, dose series, 48 h
[1] = test system: A549 NSCLC
[2] = test system: BT-549 breast
[3] = test system: EKVX NSCLC
[4] = test system: HCT-15 colon
[5] = test system: HOP-92 NSCLC
[6] = test system: HT29 colon
[7] = test system: MDA-MB-435
[8] = test system: NCI-H226 lung
[9] = test system: NCI-H460 lung
[10] = test system: SK-MEL-5 melanoma

Row | SMILES | GI50 [1] | TGI [1] | GI50 [2] | TGI [2] | GI50 [3] | TGI [3] | GI50 [4] | TGI [4] | GI50 [5] | TGI [5] | GI50 [6] | TGI [6] | GI50 [7] | TGI [7] | GI50 [8] | TGI [8] | GI50 [9] | TGI [9] | GI50 [10] | TGI [10]
1 | NS(=O)(=O)c1ccc(N=Nc2c(O)[nH]c3cccc(CCc4ccncc4)c23)cc1 | > 25 µM | > 25 µM | > 25 µM | > 25 µM | > 25 µM | > 25 µM | > 25 µM | > 25 µM | > 25 µM | > 25 µM | > 25 µM | > 25 µM | > 25 µM | > 25 µM | > 25 µM | > 25 µM | > 25 µM | > 25 µM | > 25 µM | > 25 µM
2 | Cc1cccc2c1NC(=O)[C@@H](NC(=O)[C@H](CCC(F)(F)F)[C@H](CCC(F)(F)F)C(N)=O)N=C2c1cccc(F)c1 | 36.6 µM | > 100 µM | 16.2 µM | 66.1 µM | 40.5 µM | > 100 µM | > 100 µM | > 100 µM | 14.4 µM | 57.1 µM | > 100 µM | > 100 µM | > 100 µM | > 100 µM | 17 µM | 73.4 µM | 31.3 µM | > 100 µM | > 100 µM | > 100 µM
3 | COc1ccc2c(c1)OC(N)=C(C#N)C2c1ccc(F)c(F)c1 (stereo not given) | 0.706 µM | > 100 µM | 0.598 µM | 65.6 µM | 0.751 µM | > 100 µM | 0.348 µM | > 59 µM | 6.53 µM | 69.3 µM | 0.318 µM | 4.77 µM | 0.133 µM | 0.664 µM | 19.2 µM | > 100 µM | 0.41 µM | 41.6 µM | 0.415 µM | 29.7 µM
4 | CCCC(c1cc(C(C)(C)C)c(O)cc1C)c1cc(C(C)(C)C)c(O)cc1C |  | 9.78 µM |  | 22.7 µM |  | 7.75 µM |  | 11.4 µM |  | 22.5 µM |  | 17.5 µM |  | 7.18 µM |  | 4.53 µM |  | 3.92 µM |  | 3.26 µM
5 | COc1cc2cc(Oc3ccc(NC(=O)Nc4ccc(F)c(C(F)(F)F)c4)cc3)c(C)nc2cc1OCCN1CCOCC1 | 2.57 µM | 34.3 µM | 2.44 µM | 8.46 µM | 2.53 µM | 20.7 µM | 1.73 µM | 4.19 µM | 1.31 µM | 4.96 µM | 3.07 µM | 21.8 µM | 1.91 µM | 3.9 µM | 2.55 µM | 13.2 µM | 1.96 µM | 5.34 µM | 1.14 µM | 2.36 µM
6 | CO[C@@H]1[C@H](N(C)C(=O)c2ccccc2)C[C@@H]2O[C@]1(C)n1c3ccccc3c3c4c(c5c6ccccc6n2c5c31)C(=O)NC4=O | 0.595 µM | > 100 µM | 1.21 µM | > 100 µM | 0.858 µM | > 100 µM | 0.766 µM | > 100 µM | 0.173 µM | > 100 µM | 0.745 µM | > 100 µM | 0.775 µM | > 100 µM | 0.303 µM | > 100 µM | 0.646 µM | > 100 µM | 0.797 µM | > 100 µM
7 | O=C(/C=C/c1cccnc1)c1ccccc1 | 17.2 µM | 34.2 µM | 16 µM | 29.9 µM | 14.1 µM | 27.7 µM | 4.1 µM | 20.2 µM | 4.62 µM | 19.2 µM | 2.31 µM | 5.92 µM | 12.4 µM | 26.7 µM | 14.6 µM | 28.1 µM | 7.07 µM | 21.2 µM | 14.3 µM | 27.5 µM
8 | CC(=O)NS(=O)(=O)c1ccc(-n2nc(-c3ccccc3)cc2-c2cc(O)ccc2O)cc1 | > 100 µM | > 100 µM | > 100 µM | > 100 µM | > 100 µM | > 100 µM | > 100 µM | > 100 µM | > 100 µM | > 100 µM | > 100 µM | > 100 µM | > 100 µM | > 100 µM | > 100 µM | > 100 µM | > 100 µM | > 100 µM | > 100 µM | > 100 µM
9 | COc1cccc(Nc2ncnn3ccc(CN4CC[C@@H](N)[C@H](O)C4)c23)c1 | 2.22 µM and 0.928 µM | 23.6 µM and > 7.05 µM | 14.2 µM and > 4.68 µM | 47.7 µM and > 7.41 µM | 0.0275 µM and 0.0282 µM | > 100 µM | 3.24 µM and 2.15 µM | 97.9 µM and > 10 µM | 0.125 µM and 0.194 µM | 5.21 µM and > 6.86 µM | 8.67 µM and > 2.25 µM | > 56.6 µM | 14.8 µM and > 4.71 µM | 29.9 µM and > 10 µM | 2.66 µM and 1.38 µM | 13 µM and > 8.94 µM | 18.5 µM and > 4.66 µM | 68.1 µM and > 9.16 µM | 14.5 µM and > 5.6 µM | 27.8 µM and > 10 µM
10 | Oc1c(CCl)cc(Cl)cc1Cc1cc(Cl)cc(Cc2cc(Cl)cc(CCl)c2O)c1O | 4.67 µM | 29.3 µM | 2.71 µM | 11.5 µM | 2.89 µM | 15.8 µM | 2.88 µM | 12 µM | 1.91 µM | 5.81 µM | 5.37 µM | 17.6 µM | 3.89 µM | 21.4 µM | 4.11 µM | 21.1 µM | 3.26 µM | 11 µM | 1.91 µM | 4.19 µM
11 | CCOC(=O)Cc1csc(Nc2nc(O)c(C3=c4ccccc4=NC3=O)s2)n1 | 32.4 µM | > 100 µM | 92.3 µM | > 100 µM | 77.6 µM | > 100 µM | 27.4 µM | > 100 µM | 22.2 µM | 52.3 µM | 46 µM | > 100 µM | 40.9 µM | > 100 µM | 21.3 µM | 42.8 µM | 21.6 µM | 65.2 µM | 28.5 µM | > 100 µM
12 | NNC(=S)N/N=C/c1ccccn1 | 3.14 µM | > 100 µM | 4.29 µM | > 100 µM | 4.5 µM | > 100 µM | 1.03 µM | > 100 µM | 0.887 µM | 8.2 µM | 3.54 µM | > 100 µM | 5.2 µM | > 100 µM | 2.41 µM | 13.8 µM | 1.23 µM | 8.54 µM | 2.63 µM | 22.3 µM
